# Assay results published in PubChem BioAssay (NCI).
#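 Interpolation was linear, between the two tested concentrations surrounding the appropriate level; five concentrations were tested over 48 hours in 96-well plates. The concentration for 50% growth inhibition is given as GI50. The concentration for full growth arrest is given as TGI.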
# Legend:
# Assay in all cases: NCI anticancer screen, dose series, 48 h
# MDA-MB-231 breast = system: MDA-MB-231 breast
# COLO 205 colon = system: COLO 205 colon
# SNB-75 CNS = system: SNB-75 CNS
# SF-268 CNS = system: SF-268 CNS
# MDA-MB-435 = system: MDA-MB-435
# RPMI-8226 leukemia = system: RPMI-8226 leukemia
# SK-MEL-2 melanoma = system: SK-MEL-2 melanoma
# SW-620 colon = system: SW-620 colon
# SK-MEL-28 melanoma = system: SK-MEL-28 melanoma
# NCI-H460 lung = system: NCI-H460 lung
# ACHN renal = system: ACHN renal
# KM12 colon = system: KM12 colon
# NCI-H23 lung = system: NCI-H23 lung
# OVCAR-4 ovarian = system: OVCAR-4 ovarian
# HL-60(TB) leukemia = system: HL-60(TB) leukemia
# MCF7 breast = system: MCF7 breast
# A498 renal = system: A498 renal
# OVCAR-8 ovarian = system: OVCAR-8 ovarian
# CCRF-CEM leukemia = system: CCRF-CEM leukemia
# HOP-62 NSCLC = system: HOP-62 NSCLC
# A549 NSCLC = system: A549 NSCLC
# HT29 colon = system: HT29 colon
# OVCAR-5 ovarian = system: OVCAR-5 ovarian
# NCI/ADR-RES ovarian = system: NCI/ADR-RES ovarian
# UO-31 renal = system: UO-31 renal
# SF-539 CNS = system: SF-539 CNS
# SF-295 CNS = system: SF-295 CNS
# M14 melanoma = system: M14 melanoma
# DU-145 prostate = system: DU-145 prostate
# 786-0 renal = system: 786-0 renal
# OVCAR-3 ovarian = system: OVCAR-3 ovarian
# T-47D breast = system: T-47D breast
# HS 578T breast = system: HS 578T breast
# K-562 leukemia = system: K-562 leukemia
# NCI-H226 lung = system: NCI-H226 lung
# HCT-15 colon = system: HCT-15 colon
# SK-MEL-5 melanoma = system: SK-MEL-5 melanoma
# SR leukemia = system: SR leukemia
# MOLT-4 leukemia = system: MOLT-4 leukemia
# SN12C renal = system: SN12C renal
# CAKI-1 renal = system: CAKI-1 renal
# U251 CNS = system: U251 CNS
# BT-549 breast = system: BT-549 breast
# PC-3 prostate = system: PC-3 prostate
# HCT-116 colon = system: HCT-116 colon
# SNB-19 CNS = system: SNB-19 CNS
# UACC-257 melanoma = system: UACC-257 melanoma
# SK-OV-3 ovarian = system: SK-OV-3 ovarian
# IGROV1 ovarian = system: IGROV1 ovarian
# NCI-H522 lung = system: NCI-H522 lung
smiles,measurement,setting,value
CCCCCCCCCCCC[N+](C)(C)Cc1ccccc1,GI50,MDA-MB-231 breast,1.62 µM
same,TGI,MDA-MB-231 breast,3.81 µM
same,GI50,COLO 205 colon,1.65 µM
same,TGI,COLO 205 colon,3.34 µM
same,GI50,SNB-75 CNS,1.45 µM
same,TGI,SNB-75 CNS,3.53 µM
same,GI50,SF-268 CNS,2.02 µM
same,TGI,SF-268 CNS,4.45 µM
same,GI50,MDA-MB-435,1.58 µM
same,TGI,MDA-MB-435,3.72 µM
same,GI50,RPMI-8226 leukemia,1.28 µM
same,TGI,RPMI-8226 leukemia,3.31 µM
same,GI50,SK-MEL-2 melanoma,1.97 µM
same,TGI,SK-MEL-2 melanoma,3.6 µM
same,GI50,SW-620 colon,2.69 µM
same,TGI,SW-620 colon,12.1 µM
same,GI50,SK-MEL-28 melanoma,2.06 µM
same,TGI,SK-MEL-28 melanoma,4.34 µM
same,GI50,NCI-H460 lung,3.42 µM
same,TGI,NCI-H460 lung,12.7 µM
same,GI50,ACHN renal,5.61 µM
same,TGI,ACHN renal,20.4 µM
same,GI50,KM12 colon,1.48 µM
same,TGI,KM12 colon,3.14 µM
same,GI50,NCI-H23 lung,2.5 µM
same,TGI,NCI-H23 lung,10.2 µM
same,GI50,OVCAR-4 ovarian,1.82 µM
same,TGI,OVCAR-4 ovarian,7.68 µM
same,GI50,HL-60(TB) leukemia,1.02 µM
same,TGI,HL-60(TB) leukemia,2.85 µM
same,GI50,MCF7 breast,2.01 µM
same,TGI,MCF7 breast,7.7 µM
same,GI50,A498 renal,8.06 µM
same,TGI,A498 renal,24.8 µM
same,GI50,OVCAR-8 ovarian,2.16 µM
same,TGI,OVCAR-8 ovarian,6.75 µM
same,GI50,CCRF-CEM leukemia,1.88 µM
same,TGI,CCRF-CEM leukemia,5.43 µM
same,GI50,HOP-62 NSCLC,2.69 µM
same,TGI,HOP-62 NSCLC,7.27 µM
same,GI50,A549 NSCLC,2.04 µM
same,TGI,A549 NSCLC,5.21 µM
same,GI50,HT29 colon,1.23 µM
same,TGI,HT29 colon,3.24 µM
same,GI50,OVCAR-5 ovarian,2.86 µM
same,TGI,OVCAR-5 ovarian,13.5 µM
same,GI50,NCI/ADR-RES ovarian,41.9 µM
same,TGI,NCI/ADR-RES ovarian,> 100 µM
same,GI50,UO-31 renal,10 µM
same,TGI,UO-31 renal,25.9 µM
same,GI50,SF-539 CNS,1.66 µM
same,TGI,SF-539 CNS,3.17 µM
same,GI50,SF-295 CNS,2.82 µM
same,TGI,SF-295 CNS,12.2 µM
same,GI50,M14 melanoma,1.92 µM
same,TGI,M14 melanoma,4.32 µM
same,GI50,DU-145 prostate,3.61 µM
same,TGI,DU-145 prostate,13.6 µM
same,GI50,786-0 renal,2.37 µM
same,TGI,786-0 renal,6.15 µM
same,GI50,OVCAR-3 ovarian,1.71 µM
same,TGI,OVCAR-3 ovarian,4.02 µM
same,GI50,T-47D breast,2.68 µM
same,TGI,T-47D breast,15.5 µM
same,GI50,HS 578T breast,1.95 µM
same,TGI,HS 578T breast,5.96 µM
same,GI50,K-562 leukemia,1.56 µM
same,TGI,K-562 leukemia,6.63 µM
same,GI50,NCI-H226 lung,2.84 µM
same,TGI,NCI-H226 lung,18.6 µM
same,GI50,HCT-15 colon,13.1 µM
same,TGI,HCT-15 colon,34.3 µM
same,GI50,SK-MEL-5 melanoma,1.33 µM
same,TGI,SK-MEL-5 melanoma,2.62 µM
same,GI50,SR leukemia,1.83 µM
same,TGI,SR leukemia,5.16 µM
same,GI50,MOLT-4 leukemia,2.18 µM
same,TGI,MOLT-4 leukemia,5.4 µM
same,GI50,SN12C renal,2.11 µM
same,TGI,SN12C renal,5.12 µM
same,GI50,CAKI-1 renal,5.84 µM
same,TGI,CAKI-1 renal,24.8 µM
same,GI50,U251 CNS,1.48 µM
same,TGI,U251 CNS,3.51 µM
same,GI50,BT-549 breast,1.74 µM
same,TGI,BT-549 breast,3.29 µM
same,GI50,PC-3 prostate,0.49 µM
same,TGI,PC-3 prostate,3.25 µM
same,GI50,HCT-116 colon,1.33 µM
same,TGI,HCT-116 colon,2.8 µM
same,GI50,SNB-19 CNS,2.11 µM
same,TGI,SNB-19 CNS,7.12 µM
same,GI50,UACC-257 melanoma,1.82 µM
same,TGI,UACC-257 melanoma,4.25 µM
same,GI50,SK-OV-3 ovarian,3.05 µM
same,TGI,SK-OV-3 ovarian,10.7 µM
same,GI50,IGROV1 ovarian,1.43 µM
same,TGI,IGROV1 ovarian,3.66 µM
same,GI50,NCI-H522 lung,1.53 µM
same,TGI,NCI-H522 lung,3.95 µM
